Measurements published in BindingDB's records for doi:10.1111/j.1747-0285.2007.00520.x (Pfizer, 2007).
Several values for one entry are separate records, joined by “and”; a condition that tells them apart may be missing. Equal entries are not always repeated.

What follows are compounds tested against Coagulation factor X (Homo sapiens, UniProt P00742) (assay: Inhibition Assay).
Coagulation factor X, sequence (P00742 41-179 limits assumed): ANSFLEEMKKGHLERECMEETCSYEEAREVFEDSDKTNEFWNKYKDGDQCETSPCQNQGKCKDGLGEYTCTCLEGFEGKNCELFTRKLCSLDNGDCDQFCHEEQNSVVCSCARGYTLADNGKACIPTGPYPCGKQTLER
Coagulation factor X, sequence (P00742 235-488 limits assumed): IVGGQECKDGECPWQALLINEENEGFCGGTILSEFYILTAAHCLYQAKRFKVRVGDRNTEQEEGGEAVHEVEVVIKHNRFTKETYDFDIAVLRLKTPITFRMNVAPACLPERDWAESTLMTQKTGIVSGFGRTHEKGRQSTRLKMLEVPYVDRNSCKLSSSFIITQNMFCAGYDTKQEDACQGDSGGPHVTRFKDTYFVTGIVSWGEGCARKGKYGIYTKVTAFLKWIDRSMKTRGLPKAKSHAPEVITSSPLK

Row | SMILES | IC50
1 | NS(=O)(=O)c1ccccc1-c1ccc(NC(=O)[C@H]2CC(O)CN2C(=O)Nc2ccc(Cl)cc2)c(F)c1 (stereo partly drawn) [4-Substituted Pyrrolidine Ring, 14] | 0.75 nM
2 | CS(=O)(=O)c1ccccc1-c1ccc(NC(=O)[C@H]2CC(F)CN2C(=O)Nc2ccc(Cl)cc2)c(F)c1 (stereo partly drawn) [4-Substituted Pyrrolidine Ring, 17] | 7 nM and 1.2 nM
3 | CS(=O)(=O)c1ccccc1-c1ccc(NC(=O)[C@H]2CC(=O)CN2C(=O)Nc2ccc(Cl)cc2)c(F)c1 [4-Substituted Pyrrolidine Ring, 20] | 2.9 nM
4 | CS(=O)(=O)c1ccccc1-c1ccc(NC(=O)[C@H]2CC(F)(F)CN2C(=O)Nc2ccc(Cl)cc2)c(F)c1 [4-Substituted Pyrrolidine Ring, 21] | 5 nM
5 | CS(=O)(=O)c1ccccc1-c1ccc(NC(=O)[C@H]2CC(O)CN2C(=O)Nc2ccc(Cl)cn2)c(F)c1 (stereo partly drawn) [4-Substituted Pyrrolidine Ring, 34] | 4.3 nM
6 | COC1C[C@H](C(=O)Nc2ccc(-c3ccccc3S(C)(=O)=O)cc2F)N(C(=O)Nc2ccc(Cl)cn2)C1 (stereo partly drawn) [4-Substituted Pyrrolidine Ring, 35] | 1 nM
7 | CS(=O)(=O)c1ccccc1-c1ccc(NC(=O)[C@H]2CC(O)CN2C(=O)Nc2ccc(F)cc2)c(F)c1 (stereo partly drawn) [4-Substituted Pyrrolidine Ring, 36] | 7.6 nM
8 | NS(=O)(=O)c1ccccc1-c1ccc(NC(=O)C2CCCN2C(=O)Nc2ccc(Br)cc2)c(F)c1 (stereo not drawn) [P1 Phenyl Ring, 22] | 33 nM
9 | Cc1ccc(NC(=O)N2CCCC2C(=O)Nc2ccc(-c3ccccc3S(N)(=O)=O)cc2F)cc1 (stereo not drawn) [P1 Phenyl Ring, 24] | 389 nM
10 | Cc1ccc(NC(=O)N2CCCC2C(=O)Nc2ccc(-c3ccccc3S(N)(=O)=O)cc2F)cc1F (stereo not drawn) [P1 Phenyl Ring, 25] | 516 nM

Other lines, results leading:

Row | IC50 | SMILES
11 | 873 nM | COc1ccc(NC(=O)N2CCCC2C(=O)Nc2ccc(-c3ccccc3S(N)(=O)=O)cc2F)cc1 (stereo not drawn) [P1 Phenyl Ring, 26]
12 | 951 nM | NS(=O)(=O)c1ccccc1-c1ccc(NC(=O)C2CCCN2C(=O)Nc2ccccc2)c(F)c1 (stereo not drawn) [P1 Phenyl Ring, 27]
13 | > 4000 nM | NS(=O)(=O)c1ccccc1-c1ccc(NC(=O)C2CCCN2C(=O)Nc2cccc(Cl)c2)c(F)c1 (stereo not drawn) [P1 Phenyl Ring, 28]
14 | > 4000 nM | NS(=O)(=O)c1ccccc1-c1ccc(NC(=O)C2CCCN2C(=O)Nc2ccc(Cl)c(Cl)c2)c(F)c1 (stereo not drawn) [P1 Phenyl Ring, 29]
15 | > 4000 nM | CCc1ccc(NC(=O)N2CCCC2C(=O)Nc2ccc(-c3ccccc3S(N)(=O)=O)cc2F)cc1 (stereo not drawn) [P1 Phenyl Ring, 30]
16 | > 4000 nM | NS(=O)(=O)c1ccccc1-c1ccc(NC(=O)C2CCCN2C(=O)Nc2ccc(C(F)(F)F)cc2)c(F)c1 (stereo not drawn) [P1 Phenyl Ring, 31]
17 | > 4000 nM | COc1cccc(NC(=O)N2CCCC2C(=O)Nc2ccc(-c3ccccc3S(N)(=O)=O)cc2F)c1 (stereo not drawn) [P1 Phenyl Ring, 32]
18 | > 4000 nM | NS(=O)(=O)c1ccccc1-c1ccc(NC(=O)C2CCCN2C(=O)Nc2ccccc2F)c(F)c1 (stereo not drawn) [P1 Phenyl Ring, 33]
